Assay results published in patent US12600732B2, “Bifunctional compounds for degrading BTK via ubiquitin proteosome pathway” (NURIX THERAPEUTICS, INC., priority 2019, dated 2026).

Assays:
TMD8 C481S cells = test: Cell viability assay (CellTiter-Glo), TMD8 C481S cells; details: for EC50: Homo sapiens, TMD8, 72 h; for EMAX (% viable cells): TMD8 C481S cells, treatment time 72 h
CRBN neo-substrates = test: CRBN neo-substrate levels / IMiD activity in MOLT4 and TMD8 cells (FIGS. 10-12); assay type: cell-based; details: for effects on CRBN neo-substrate levels: after twenty-four hours, TMD8 and/or MOLT4 cells, FIGS. 10A and 10B
Text: FIGS. 10A and 10B provide effects of compounds 73, 72, 121, and 44, and control compounds, on neo-substrate and ITK or BTK levels after twenty-four hours in MOLT4 cells (FIG. 10A) and TMD8 cells (FIG. 10B).
FIGS. 11A and 11B provide effects of compounds 44, 72, and 149, and control compounds, on CRBN neo-substrate and ITK levels in MOLT4 cells (FIG. 11A) and TMD8 cells (FIG. 11B).
FIG. 12 provides effects of compounds 130, 149, and 44 on ITK levels and IMiD activity.

BTK = BTK (Homo sapiens, UniProt Q06187); test: Cellular BTK degradation assay (Total BTK HTRF) in TMD8 cells; assay type: cell-based; set-up: endogenous in cells; host or cells: TMD8; details: treatment time 24 h
BTK, sequence (Q06187 whole entry): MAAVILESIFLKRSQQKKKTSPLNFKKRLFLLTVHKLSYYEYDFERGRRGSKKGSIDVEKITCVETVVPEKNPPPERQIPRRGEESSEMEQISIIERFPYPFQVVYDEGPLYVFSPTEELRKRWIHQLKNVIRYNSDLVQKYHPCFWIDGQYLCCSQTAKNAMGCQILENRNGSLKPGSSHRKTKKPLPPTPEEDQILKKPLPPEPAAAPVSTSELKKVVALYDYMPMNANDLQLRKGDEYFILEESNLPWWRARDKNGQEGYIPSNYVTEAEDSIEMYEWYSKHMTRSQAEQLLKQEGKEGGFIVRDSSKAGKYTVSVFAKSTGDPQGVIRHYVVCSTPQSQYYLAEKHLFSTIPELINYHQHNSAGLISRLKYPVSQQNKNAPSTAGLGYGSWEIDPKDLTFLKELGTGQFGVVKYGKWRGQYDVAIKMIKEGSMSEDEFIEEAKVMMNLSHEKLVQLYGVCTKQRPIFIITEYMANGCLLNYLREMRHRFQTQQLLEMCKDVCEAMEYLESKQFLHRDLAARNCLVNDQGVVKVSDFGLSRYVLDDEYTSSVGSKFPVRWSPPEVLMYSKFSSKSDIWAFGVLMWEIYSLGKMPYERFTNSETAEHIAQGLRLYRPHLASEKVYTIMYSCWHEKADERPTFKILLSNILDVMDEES
Method: Cellular BTK Degradation Assay
In Vitro Cellular Screening to Determine Potency as Measured by DC50 Values after Four Hour Incubation
BTK levels were determined using Cisbio Total-BTK HTRF (Homologous Time-Resolved Fluorescence) kit (63ADK064PEG) according to the manufacturer's protocol. Briefly, cells were incubated in 1× supplied lysis buffer for 30 minutes. In an opaque white low volume 96-well plate (Cisbio, 66PL96005), cell lysate was combined with two different specific BTK antibodies, one conjugated with Eu^3+-Cryptate FRET donor and one conjugated with d2 FRET acceptor. Assay controls include wells containing cell lysate with only the Eu^3+-Cryptate FRET donor antibody and wells containing both HTRF antibodies and lysis buffer without cells or control lysate provided by Cisbio. HTRF ratio was calculated as (acceptor signal at 665 nm/donor signal at 620 nm)×10^4. Background HTRF levels were determined from the control well containing the donor, but no acceptor, antibody. Background HTRF levels were subtracted from all samples. Readouts were reported as HTRF levels relative to HTRF levels of DMSO-treated cells. Four-parameter non-linear regressions were performed in GraphPad Prism 7.02 to obtain DC50 values.
Cellular BTK degradation was measured as above for four hours in TMD8 cells for two diastereomers of compound 130. DC50 and EC50 values are the concentration at which the response is halfway between the top and bottom of the fitted non-linear regression curve.
The present example evaluates whether potency of BTK CTMs shifts with longer timepoints. DC50 values are typically calculated with a 4-hour timepoint.

| SMILES | EC50 (TMD8 C481S cells) | EMAX (% viable cells) (TMD8 C481S cells) | IMiD activity (CRBN neo-substrates; FIG. 12) | effects on CRBN neo-substrate levels (CRBN neo-substrates) | DC50 (BTK) |
| --- | --- | --- | --- | --- | --- |
| CN1CCN([C@@H]2CCCN(c3cnc(C(N)=O)c(Nc4ccc(C5CCN(CC6CCN(c7ccc8c(=O)n(C9CCC(=O)NC9=O)ccc8c7)CC6)CC5)cc4)n3)C2)C1=O (stereo partly drawn) [Compound 72] | 1.16 nM | 21% | did not have IMiD activity | does not effect | 0.21 nM |
| CN1CCN([C@@H]2CCCN(c3cnc(C(N)=O)c(Nc4ccc(C5CCN(CC6CCN(c7ccc(-c8nn(C9CCC(=O)NC9=O)c(=O)n8C)cc7)CC6)CC5)cc4)n3)C2)C1=O (stereo partly drawn) [Compound 121] | 4.94 nM | 31% | – | minimal effects | 1 nM |
